From patent US6565897B2, “Extract of nerium species, pharmaceutical composition thereof and methods for preparation thereof” (Ozelle Pharmaceuticals, Inc., priority 1998, dated 2003)

Test system: Tumor Necrosis Factor (TNF)
Assay: Tumor Necrosis Factor (TNF) production (immune stimulation)
Format: cell-based
Conditions: at a concentration of 50 mcg/mL
From the text: For example, the polysaccharide PS-I is shown to produce 256 Unit/mL of Tumor Necrosis Factor (TNF) at a concentration of 50 mcg/mL while a mixture of PS-II, PS-III and PS-IV is shown to produce 1000 Unit/mL of TNF at a concentration of 3 mcg/mL.

Poly α (1→4) D-Galacturonic Acid [PS-I]
Tumor Necrosis Factor (TNF) produced: 256 Unit/mL
